“Also recorded” adds a separate entry of the source.
Key:
[1] = Weight control and P/F ratio of animals, general statements; type: in vivo; conditions: for Improved P/F ratio, lowest dosage / Weight control activity, lowest dosage: decreasing dosage
endocrine system [2] = conditions: cited from earlier work; for Endocrine suppression, weight control and P/F ratio: levels of administration described in the copending application; for Production of gonadal hormones / Production of thyroid hormones: parenteral administration, copending application
endocrine system [3] = experiment: Endocrine suppression activity in animals, general statements; type: in vivo
[4] = Body weight of adult male rats treated intraventricularly (Example 4); type: in vivo, rat; conditions: i/vt CoPP 0.4 μmol/kg b.w.; 5 animals; FIG. 4
Excerpt: FIG. 4 depicts the means ±SEM of the body weights of 5 adult male rats treated i/vt with vehicle and 5 animals with CoPP 0.4 μmol/kg b.w. ( , lower panel).

[5] = test system: δ-Aminolevulinic acid synthase; experiment: Hepatic δ-aminolevulinic acid synthase activity of treated rats (Example 1); type: in vivo, Sprague-Dawley rat; conditions: Day 71; 10 serial doses of CoPP 1 μmol/kg b.w. s.c.; n = 6; control 0.29 ± 0.02
Method: (§1) Adult male Sprague-Dawley rats (≈250 g) were injected subcutaneously with CoPP 1 μmol/kg b.w. (12 rats) or vehicle (12 rats) on day 0. Thereafter, injections (Vertical arrows in FIG. 1) were repeated weekly until 10 doses had been given. Animals were allowed Purina rat chow and water ad libitum and animal weights were recorded thrice weekly; means are presented in FIG. 1 ( is control and treated animals). On day 71, 6 control rats and 6 CoPP-treated rats were sacrificed, blood collected for hormone determinations and hepatic mitochondrial and microsomal fractions prepared for biochemical assays. These procedures were repeated at day 124 for the remainder of the animals.
(§2) The effects of 10 serial doses of CoPP 1 μmol/kg b.w. on weight,
(§3) *n = 12; for all other parameters, n = 6 animals per treatment.

[6] = test system: 7-Ethoxycoumarin de-ethylase; experiment: Hepatic 7-ethoxycoumarin de-ethylase activity of treated rats (Example 1); type: in vivo, Sprague-Dawley rat; conditions: Day 71; 10 serial doses of CoPP 1 μmol/kg b.w. s.c.; n = 6; control 0.41 ± 0.04
Method: as §1, §2, §3

[7] = Body weight and naso-anal length of adult male rats after weekly subcutaneous injections (Example 1); type: in vivo, Sprague-Dawley rat
Method: as §1, §2, §3
**As calculated by Student's Ttest. The only significant changes are in […]

cytochrome P-450 [8] = conditions: administration to animals; lowest level 25 μm/kg body weight; cited from earlier work
Cytochrome P-450 [9] = experiment: Hepatic cytochrome P-450 content of treated rats (Example 1); type: in vivo, Sprague-Dawley rat; conditions: Day 71; 10 serial doses of CoPP 1 μmol/kg b.w. s.c.; n = 6; control 1.06 ± 0.23
Method: as §1, §2, §3

[10] = test system: heme pathway and cytochrome P-450-dependent enzyme activities; experiment: Heme pathway and cytochrome P-450-dependent enzyme activities of treated rats, overall statement (Example 1); type: in vivo, Sprague-Dawley rat; conditions: CoPP 1 μmol/kg b.w. s.c. weekly, 10 doses
Method: as §1

hormone concentrations = experiment: Hormone concentrations of treated rats, overall statement (Example 1); type: in vivo, Sprague-Dawley rat
Method: as §1

[11] = Prolonged body weight loss after single intraventricular treatment (Example 5); type: in vivo, rat; conditions: single i/vt CoPP 0.2 or 0.4 μmol/kg b.w.; n=4; FIG. 5
Excerpt: The prolonged loss of body weight following single i/vt treatments with CoPP 0.2 or 0.4 μmol/kg b.w. are contrasted with that of vehicle-treated rats in FIG. 5 (n=4).

Insulin = Insulin concentration in blood of subcutaneously treated rats (Example 1); type: in vivo, Sprague-Dawley rat; conditions: Day 124; 10 serial doses of CoPP 1 μmol/kg b.w. s.c.; n = 6; control 156 ± 47.6
Method: as §1, §2, §3

[12] = test system: Aryl hydrocarbon hydroxylase; experiment: Hepatic aryl hydrocarbon hydroxylase activity of treated rats (Example 1); type: in vivo, Sprague-Dawley rat; conditions: Day 71; 10 serial doses of CoPP 1 μmol/kg b.w. s.c.; n = 6; control 275 ± 24
Method: as §1, §2, §3

[13] = Body weight of adult male Beagle dogs after weekly intramuscular injections (Example 2); type: in vivo, Beagle dog
Method: (§4) Adult male Beagle dogs (≈1 year) were housed in single runs with free access to Purina dog chow and water. On day 0, 3 animals were injected intramuscularly in the upper posterolateral aspect of the hindlimb with CoPP 2.5 μmol/kg b.w., and 3 animals with control vehicle. Injections (Vertical arrows in FIG. 2) were repeated weekly, in alternating hindlimbs, until a: total of 9 doses had been given. Animal weights were recorded thrice weekly and means are presented in FIG. 2 ( is control and is treated animals).

Heme oxygenase = experiment: Hepatic heme oxygenase activity of treated rats (Example 1); type: in vivo, Sprague-Dawley rat; conditions: Day 71; 10 serial doses of CoPP 1 μmol/kg b.w. s.c.; n = 6; control 1.85 ± 0.15
Method: as §1, §2, §3

Testosterone [14] = experiment: Testosterone concentration in blood of subcutaneously treated rats (Example 1); type: in vivo, Sprague-Dawley rat; conditions: 10 serial doses of CoPP 1 μmol/kg b.w. s.c., n = 6
Method: as §1, §2, §3

testosterone [15] = experiment: Testosterone concentration of adult male rats treated intraventricularly (Example 4); type: in vivo, rat; conditions: i/vt CoPP 0.4 μmol/kg b.w.; 5 animals; FIG. 4
Aniline hydroxylase = experiment: Hepatic aniline hydroxylase activity of treated rats (Example 1); type: in vivo, Sprague-Dawley rat; conditions: Day 71; 10 serial doses of CoPP 1 μmol/kg b.w. s.c.; n = 6; control 59 ± 3.48
Method: as §1, §2, §3

[16] = Body weight of adult male rats after intraventricular injection, dose response (Example 3); type: in vivo, rat
Method: Adult male rats were anesthetized during stereotaxic placement of chronic indwelling catheters into the third ventricle of the brain. After 3-4 days post-operative recovery, animals were injected intraventricularly (i/vt) with small volumes (<10μl) of vehicle or CoPP 0.1, 0.2 (o) or 0.4 μmol/kg b.w.

LH = LH concentration in blood of subcutaneously treated rats (Example 1); type: in vivo, Sprague-Dawley rat; conditions: Day 124; 10 serial doses of CoPP 1 μmol/kg b.w. s.c.; n = 6; control 21.1 ± 3.29
Method: as §1, §2, §3

testosterone [17] = experiment: Serum testosterone of male Beagle dogs after weekly intramuscular injections (Example 2); type: in vivo, Beagle dog; conditions: for Testosterone (serum): n = 3
Method: as §4
The effects of 9 serial doses of CoPP 2.5 μmol/kg b.w. on serum
testosterone concentrations in male Beagle dogs.

[18] = test system: Ethylmorphine demethylase; experiment: Hepatic ethylmorphine demethylase activity of treated rats (Example 1); type: in vivo, Sprague-Dawley rat; conditions: Day 71; 10 serial doses of CoPP 1 μmol/kg b.w. s.c.; n = 6; control 0.43 ± 0.05
Method: as §1, §2, §3

[19] = similar administration to FIGS. 1-5
[20] = at about 10 μm/kg b.w., say 9.8 μm/kg b.w.
[21] = preferred range 0.1 to 0.3 μm/kg b.w.
[22] = CoPP 1 μmol/kg b.w. s.c. weekly, 10 doses

## CCC1=C(C)c2cc3[n-]c(cc4[n-]c(cc5nc(cc1n2)C(C)=C5CC)c(C)c4CCC(=O)[O-])c(CCC(=O)[O-])c3C.[Co+2].[H+].[H+] [CoMP, cobalt mesoporphyrin]
[1]
  Improved P/F ratio, lowest dosage: continues even down to as low as 0.1 μm/kg b.w.
  Weight control activity, lowest dosage: continues even down to as low as 0.1 μm/kg b.w.
[1]; [19]
  P/F ratio: improved P/F ratios
  Results relative to those illustrated in the figures for CoPP: Comparable results
Endocrine system [2]
  Endocrine suppression, weight control and P/F ratio: endocrine suppression, weight control and improved P/F ratio all take place simultaneously
  Production of gonadal hormones: limit the production of gonadal hormones
  Production of thyroid hormones: suppress the production of thyroid hormones
Endocrine system [3]; at 4 μm/kg b.w.
  Endocrine suppression activity: effectively disappeared
Endocrine system [3]; [20]
  Endocrine suppression activity: negligible
Endocrine system [3]; dependence on dosage
  Endocrine suppression activity: declines as the dosage is decreased
Endocrine system [3]; [21]
  Endocrine suppression activity: substantially no endocrine suppression activity

## C=CC1=C(C)c2cc3[n-]c(cc4nc(cc5[n-]c(cc1n2)c(C)c5CCC(=O)[O-])C(CCC(=O)[O-])=C4C)c(C)c3C=C.[Co+2].[H+].[H+] [CoPP, cobalt protoporphyrin]
[4]
  Weight loss: typical weight loss
[5]
  δ-Aminolevulinic acid synthase: 0.30 ± 0.01 μmol ALA/mg prot/90'
[1]
  Improved P/F ratio, lowest dosage: continues even down to as low as 0.1 μm/kg b.w.
  Weight control activity, lowest dosage: continues even down to as low as 0.1 μm/kg b.w.
[1]; [19]
  P/F ratio: improved P/F ratios
[6]
  7-Ethoxycoumarin de-ethylase: 0.53 ± 0.03 μmol/mg prot/hr
[7]; [22]
  Difference in weights of control and CoPP-treated rats: highly significant
[7]; Day 71, 10 serial doses of CoPP 1 μmol/kg b.w. s.c. weekly, n = 12, control 568 ± 16
  Body weight: 442 ± 5 g
[7]; Day 124, 10 serial doses of CoPP 1 μmol/kg b.w. s.c., n = 6, control 633 ± 39
  Body weight: 541 ± 12 g
[7]; adult male rats, Example 1
  Body weight change (FIG. 1): decrease in body weight
Cytochrome P-450 [8]
  Cytochrome P-450 content of the liver: deplete the cytochrome P-450 content of the liver
Cytochrome P-450 [9]
  Cytochrome P-450: 0.70 ± 0.12 nmol/mg protein
[10]
  Difference in heme pathway and cytochrome P-450-dependent enzyme activities vs control: no significant differences
Endocrine system [2]
  Endocrine suppression, weight control and P/F ratio: endocrine suppression, weight control and improved P/F ratio all take place simultaneously
  Production of gonadal hormones: limit the production of gonadal hormones
  Production of thyroid hormones: suppress the production of thyroid hormones
Hormone concentrations; [22]
  Difference in hormone concentrations vs control: no significant differences
Hormone concentrations; adult male rats, Example 1
  Hormone concentration change (FIG. 1 with Table I): without decrease in hormone concentration
[11]
  Loss of body weight after single i/vt treatment: prolonged weight loss; also recorded: prompt decrease in weight
  Weight differential between treated and untreated animals: maintained for the duration of the treatment
Endocrine system [3]; at 4 μm/kg b.w.
  Endocrine suppression activity: effectively disappeared
Endocrine system [3]; [20]
  Endocrine suppression activity: negligible
Endocrine system [3]; dependence on dosage
  Endocrine suppression activity: declines as the dosage is decreased
Endocrine system [3]; [21]
  Endocrine suppression activity: substantially no endocrine suppression activity
Insulin
  Insulin: 191 ± 43.6 μU/ml
[12]
  Aryl hydrocarbon hydroxylase: 291 ± 28 pmol 80HBP/mg prot/hr
[13]; adult male dogs, Example 2
  Body weight change (FIG. 2): decrease in body weight
[13]; after first 3 weeks, CoPP 2.5 μmol/kg b.w. i.m. weekly
  Mean weights: progressively decreased thereafter to a nadir at day 74
[13]; by day 84, CoPP 2.5 μmol/kg b.w. i.m. weekly, 9 doses
  Recovery of body weight: returned to their pre-treatment weights
[13]; first 3 weeks of treatment, CoPP 2.5 μmol/kg b.w. i.m. weekly
  Mean weights: unchanged
[13]; nadir at day 74, CoPP 2.5 μmol/kg b.w. i.m. weekly, 9 doses
  Loss of body weight: approximately 25 % of their body weight
Heme oxygenase
  Heme oxygenase: 2.08 ± 0.21 nmol bilirubin/mg prot/hr
Testosterone [14]; Day 71, control 1.96 ± 0.29
  Testosterone: 1.72 ± 0.23 ng/mL
Testosterone [14]; Day 124, control 2.64 ± 0.25
  Testosterone: 3.59 ± 0.90 ng/mL
Testosterone [15]
  Testosterone concentrations vs vehicle-treated rats: without significant changes in testosterone concentration; also recorded: not significantly different
Aniline hydroxylase
  Aniline hydroxylase: 74 ± 4.62 nmol p-aminop./mg prot/hr
[16]; adult male rats, intraventricular administration, Example 3
  Weight loss (FIG. 3): weight loss achieved
[16]; i/vt CoPP 0.1, 0.2 or 0.4 μmol/kg b.w., 4-6 animals per group
  Effects on body weight, dose dependence: dose responsive
[16]; intraventricular versus s/c administration
  i/vt dosage relative to s/c dosage required to elicit the same changes (fold less): 50-100 fold less
LH
  LH: 24.2 ± 6.14 ng/mL
Testosterone [17]; Day 0 (before start of the experiment), CoPP 2.5 μmol/kg b.w. group, control 1.82 ± 0.65
  Testosterone (serum): 2.03 ± 0.57 ng/mL
Testosterone [17]; Day 62, 9 serial doses of CoPP 2.5 μmol/kg b.w. i.m. weekly, control 1.73 ± 0.52
  Testosterone (serum): 2.15 ± 1.52 ng/mL
Testosterone [17]; Day 112, 9 serial doses of CoPP 2.5 μmol/kg b.w. i.m. weekly, control 1.67 ± 0.03
  Testosterone (serum): 1.92 ± 0.83 ng/mL
Testosterone [17]; adult male dogs, Example 2
  Testosterone level change (FIG. 2 with Table II): no decrease in testosterone levels
Testosterone [17]; days 62 and 112, CoPP 2.5 μmol/kg b.w. i.m.
  Effect on testosterone concentrations: no effect
[18]
  Ethylmorphine demethylase: 0.49 ± 0.04 μmol form/mg prot/hr

Reference: US4997828A, “Method of weight control by low level administration of cobalt protoporphyrin or cobalt mesoporphyrin” (The Rockefeller University, priority 1989, dated 1991)
